According to patent publication US20240197743A1, “WEE1 COMPOUND FOR TREATING UTERINE SEROUS CARCINOMA” (Recurium IP Holdings, LLC, priority 2021, published 2024):

Assays:
[1] = test system: subjects with uterine serous carcinoma (USC); test: ZN-c3-001 (NCT04158336) open label, multicenter, Phase I dose escalation and expansion study; subjects with USC at doses ≥300 mg QD; format: in vivo, human; conditions: for Spleen: baseline 21 mm; for Peritoneum: baseline 17.8 mm
Method: ZN-c3-001 (NCT04158336) is an open label, multicenter, Phase I dose escalation and expansion study evaluating the safety and clinical activity of ZN-c3 in subjects with advanced or metastatic solid tumors, refractory to standard therapy or for whom no standard therapy is available. Oral, daily ZN-c3 dosing was escalated from 25 mg to 450 mg once daily (QD), with a recommended phase 2 dose of 300 mg QD. Here we report preliminary safety and efficacy results for subjects with USC who received ZN-c3 at doses ≥300 mg QD.

[2] = test system: multiple cell lines and xenograft models; test: in vitro antitumor activity in multiple cell lines and xenograft models; format: cell-based
[3] = subject #1, Follow-up 1 (February 2021)
[4] = subject #1, Follow-up 2 (April 2021)
[5] = subject #1, Follow-up 3 (June 2021)
[6] = subject #2, Follow-up 1 (March 2021)
[7] = subject #2, Follow-up 2 (April 2021)
[8] = subject #2, Follow-up 2 (April 2021), baseline 15 mm
[9] = subject #2, Follow-up 3 (June 2021)
[10] = subject #2, Follow-up 3 (June 2021), baseline 15 mm
[11] = subject #2, Follow-up 4 (July 2021)
[12] = subject #2, Follow-up 4 (July 2021), baseline 15 mm
[13] = subject #2, Follow-up 5 (August 2021)
[14] = subject #2, Follow-up 5 (August 2021), baseline 15 mm
[15] = subject #3, Follow-up 1 (May 2021)
[16] = subject #3, Follow-up 2 (July 2021)
[17] = subject #3, Follow-up 3 (August 2021)
[18] = subject #3, Follow-up 4 (September 2021)
[19] = subject #3, Follow-up 5 (November 2021)

C=CCn1c(=O)c2cnc(Nc3ccc(N4CCN(C)CC4)cc3)nc2n1-c1ccc2c(n1)[C@@](O)(CC)CC2 [ZN-c3, (R)-2-allyl-1-(7-ethyl-7-hydroxy-6,7-dihydro-5H-cyclopenta[b]pyridin-2-yl)-6-((4-(4-methylpiperazin-1-yl)phenyl)amino)-1,2-dihydro-3H-pyrazolo[3,4-d]pyrimidin-3-one]
progressive disease as best overall response ([1]; 1 of 11 evaluable USC subjects, ≥300 mg QD): 9.1% | confirmed partial response as best overall response ([1]; 3 of 11 evaluable USC subjects, ≥300 mg QD): 27.3% | stable disease as best overall response ([1]; 7 of 11 evaluable USC subjects, ≥300 mg QD): 63.6% | Disease control rate (complete response, partial response, and stable disease) ([1]; 11 evaluable USC subjects, ≥300 mg QD): 90.9% | Grade ≥3 TRAEs occurring in ≥2 subjects ([1]; 14 USC subjects, ≥300 mg QD): anemia and thrombocytopenia | TRAEs grades 1-4 occurring in ≥3 subjects, by decreasing frequency ([1]; 14 USC subjects, ≥300 mg QD): nausea, vomiting, diarrhea, fatigue, decreased appetite, dehydration, and anemia | subjects reporting at least one treatment-related adverse event (TRAE) ([1]; 14 USC subjects, ≥300 mg QD): 12 of 14 | subjects with each Grade ≥3 hematologic event (anemia, thrombocytopenia) ([1]; 14 USC subjects, ≥300 mg QD): 2 subjects each | safety and tolerability ([1]; single agent, oral doses ≥300 mg QD): safe and well-tolerated | peritoneum imaging result (FIG. 1) ([1]; subject #1, 2nd restaging (April 2021) vs baseline (November 2020)): confirmed partial response | best response ([1]; subject #1, start 350 mg QD): Confirmed PR | reduction overall ([1]; subject #1, start 350 mg QD): 49% | time on the study drug until radiologic disease progression ([1]; subject #1, start 350 mg QD): 199 days | Target Lesions ([1]; subject #1, start 350 mg QD, Follow-up 1 (February 2021), baseline 24 mm): 15 mm | Tumor marker CA-125, minimum ([1]; subject #1, start 350 mg QD, after ~3 months of treatment, baseline 36 U/mL): 12 U/mL | New Lesions [1, 3]: No | Percentage of overall tumor reduction [1, 3]: −48.9% | Tumor Response by RECIST 1.1 [1, 3]: Partial | Spleen [1, 3]: 8 mm | Target Lesions Sum ([1]; subject #1, Follow-up 1 (February 2021), baseline 45 mm): 23 mm | New Lesions [1, 4]: No | Percentage of overall tumor reduction [1, 4]: −48.9% | Tumor Response by RECIST 1.1 [1, 4]: Partial | Spleen [1, 4]: 7 mm | Target Lesions ([1]; subject #1, Follow-up 2 (April 2021), baseline 24 mm): 16 mm | Target Lesions Sum ([1]; subject #1, Follow-up 2 (April 2021), baseline 45 mm): 23 mm | New Lesions [1, 5]: No | Percentage of overall tumor reduction [1, 5]: −48.9% | Tumor Response by RECIST 1.1 [1, 5]: Progressive | Spleen [1, 5]: 7 mm | Target Lesions ([1]; subject #1, Follow-up 3 (June 2021), baseline 24 mm): 16 mm | Target Lesions Sum ([1]; subject #1, Follow-up 3 (June 2021), baseline 45 mm): 23 mm | peritoneum imaging result (FIG. 2) ([1]; subject #2, 1st restaging (March 2021) vs baseline (January 2021)): partial response | best response ([1]; subject #2, start 300 mg QD): Confirmed PR | reduction overall ([1]; subject #2, start 300 mg QD): 43% | time on the study drug until radiologic disease progression ([1]; subject #2, start 300 mg QD): 230 days | Target Lesions ([1]; subject #2, start 300 mg QD, Follow-up 1 (March 2021), baseline 15 mm): 06 mm | Tumor marker CA-125 ([1]; subject #2, start 300 mg QD, after 2 months of treatment, baseline 440 U/mL): < 50 U/mL | New Lesions [1, 6]: No | Percentage of overall tumor reduction [1, 6]: −43% | Tumor Response by RECIST 1.1 [1, 6]: Partial Response | Lymph Node ([1]; subject #2, Follow-up 1 (March 2021), baseline 15 mm): 11 mm | Target Lesions Sum ([1]; subject #2, Follow-up 1 (March 2021), baseline 30 mm): 17 mm | New Lesions [1, 7]: No | Percentage of overall tumor reduction [1, 7]: −43% | Tumor Response by RECIST 1.1 [1, 7]: Partial Response | Lymph Node [1, 8]: 10 mm | Target Lesions [1, 8]: 07 mm | Target Lesions Sum ([1]; subject #2, Follow-up 2 (April 2021), baseline 30 mm): 17 mm | New Lesions [1, 9]: No | Percentage of overall tumor reduction, from baseline [1, 9]: −40% from baseline | Percentage of overall tumor reduction, from nadir [1, 9]: +6% from nadir | Tumor Response by RECIST 1.1 [1, 9]: Partial Response | Lymph Node [1, 10]: 10 mm | Target Lesions [1, 10]: 8 mm | Target Lesions Sum ([1]; subject #2, Follow-up 3 (June 2021), baseline 30 mm): 18 mm | New Lesions [1, 11]: No | Percentage of overall tumor reduction, from baseline [1, 11]: −30% from baseline | Percentage of overall tumor reduction, from nadir [1, 11]: +24% from nadir | Tumor Response by RECIST 1.1 [1, 11]: Partial Response | Lymph Node [1, 12]: 10 mm | Target Lesions [1, 12]: 11 mm | Target Lesions Sum ([1]; subject #2, Follow-up 4 (July 2021), baseline 30 mm): 21 mm | New Lesions [1, 13]: No | Percentage of overall tumor reduction, from baseline [1, 13]: −30% from baseline | Percentage of overall tumor reduction, from nadir [1, 13]: +24% from nadir | Tumor Response by RECIST 1.1 [1, 13]: Progressive Disease | Lymph Node [1, 14]: 10 mm | Target Lesions [1, 14]: 11 mm | Target Lesions Sum ([1]; subject #2, Follow-up 5 (August 2021), baseline 30 mm): 21 mm | peritoneum imaging result (FIG. 3) ([1]; subject #3, 5th restaging (November 2021) vs baseline (April 2021)): complete response | best response ([1]; subject #3, start 300 mg QD): Unconfirmed Complete Response | reduction overall ([1]; subject #3, start 300 mg QD): 100% | time on the study drug until clinical disease progression ([1]; subject #3, start 300 mg QD): 252 days | Target Lesions ([1]; subject #3, start 300 mg QD, Follow-up 1 (May 2021), baseline 36.6 mm): 21.7 mm | New Lesions [1, 15]: No | Percentage of overall tumor reduction [1, 15]: −32% | Tumor Response by RECIST 1.1 [1, 15]: Partial Response | Peritoneum [1, 15]: 15.3 mm | Target Lesions Sum ([1]; subject #3, Follow-up 1 (May 2021), baseline 54.4 mm): 37 mm | New Lesions [1, 16]: No | Percentage of overall tumor reduction [1, 16]: −67.8% | Tumor Response by RECIST 1.1 [1, 16]: Partial Response | Peritoneum ([1]; subject #3, Follow-up 2 (July 2021), (too small)): 5 mm (too small) | Target Lesions ([1]; subject #3, Follow-up 2 (July 2021), baseline 36.6 mm): 12.5 mm | Target Lesions Sum ([1]; subject #3, Follow-up 2 (July 2021), baseline 54.4 mm): 17.5 mm | New Lesions [1, 17]: No | Percentage of overall tumor reduction [1, 17]: −76.5% | Tumor Response by RECIST 1.1 [1, 17]: Partial Response | Peritoneum ([1]; subject #3, Follow-up 3 (August 2021), (too small)): 5 mm (too small) | Target Lesions ([1]; subject #3, Follow-up 3 (August 2021), baseline 36.6 mm): 7.8 mm | Target Lesions Sum ([1]; subject #3, Follow-up 3 (August 2021), baseline 54.4 mm): 12.8 mm | New Lesions [1, 18]: No | Percentage of overall tumor reduction [1, 18]: −82% | Tumor Response by RECIST 1.1 [1, 18]: Partial Response | Peritoneum ([1]; subject #3, Follow-up 4 (September 2021), (too small)): 5 mm (too small) | Target Lesions ([1]; subject #3, Follow-up 4 (September 2021), baseline 36.6 mm, (too small)): 5 mm (too small) | Target Lesions Sum ([1]; subject #3, Follow-up 4 (September 2021), baseline 54.4 mm): 10 mm | New Lesions [1, 19]: No | Percentage of overall tumor reduction [1, 19]: −100% | Tumor Response by RECIST 1.1 [1, 19]: Complete Response | Peritoneum [1, 19]: 0 mm | Target Lesions ([1]; subject #3, Follow-up 5 (November 2021), baseline 36.6 mm): 0 mm | Target Lesions Sum ([1]; subject #3, Follow-up 5 (November 2021), baseline 54.4 mm): 0 mm | clinical activity ([1]; subjects with recurrent or advanced USC, Examples 1-3): demonstrated clinical activity | antitumor activity [2]: significant in vitro antitumor activity
